Results: publication PMC13017400, “ENPP1 inhibition as a therapeutic approach for later-onset hypophosphatasia” (Journal of Bone and Mineral Research, 2025)

Target: T1, ENPP1 (ectonucleotide pyrophosphatase/phosphodiesterase 1) (Mus musculus, UniProt P06802)
T1 sequence (P06802 1-906): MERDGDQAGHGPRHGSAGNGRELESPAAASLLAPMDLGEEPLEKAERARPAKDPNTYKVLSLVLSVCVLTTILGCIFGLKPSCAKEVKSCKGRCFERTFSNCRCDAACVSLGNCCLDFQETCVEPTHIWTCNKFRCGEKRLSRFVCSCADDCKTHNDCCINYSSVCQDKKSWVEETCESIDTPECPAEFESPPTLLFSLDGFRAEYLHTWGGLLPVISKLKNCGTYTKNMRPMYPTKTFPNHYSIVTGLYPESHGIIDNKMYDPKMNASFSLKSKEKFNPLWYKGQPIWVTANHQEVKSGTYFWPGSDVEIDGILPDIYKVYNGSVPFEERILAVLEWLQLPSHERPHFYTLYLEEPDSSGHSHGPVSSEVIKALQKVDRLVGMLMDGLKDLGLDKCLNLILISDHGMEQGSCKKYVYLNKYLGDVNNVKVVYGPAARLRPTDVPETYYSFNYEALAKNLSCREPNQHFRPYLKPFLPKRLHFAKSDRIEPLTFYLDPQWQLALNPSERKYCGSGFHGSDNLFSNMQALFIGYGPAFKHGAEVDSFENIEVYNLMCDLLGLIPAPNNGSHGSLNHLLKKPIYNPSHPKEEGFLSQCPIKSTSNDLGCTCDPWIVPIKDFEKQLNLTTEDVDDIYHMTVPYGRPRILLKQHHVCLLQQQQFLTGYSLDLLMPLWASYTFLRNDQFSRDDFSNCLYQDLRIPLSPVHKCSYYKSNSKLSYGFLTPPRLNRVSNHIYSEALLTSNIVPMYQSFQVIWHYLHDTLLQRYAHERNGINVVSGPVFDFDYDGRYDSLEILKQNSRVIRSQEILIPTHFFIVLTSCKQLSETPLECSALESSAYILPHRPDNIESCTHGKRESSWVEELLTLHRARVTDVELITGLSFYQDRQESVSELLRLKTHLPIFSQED
Assay: Transcreener AMP/GMP TR-FRET enzymatic assay, […] mouse ENPP1 protein, […] ATP
Format: biochemical

IC50: 6.3 nM
Substance: REV102
